Measurements reported in patent US12351561B2, “Crystalline (2S,4R)-5-(5'-chloro-2'-fluoro-[1,1'-biphenyl]-4-yl)-2-(ethoxymethyl)-4-(3-hydroxyisoxazole-5-carboxamido)-2-methylpentanoic acid and uses thereof” (THERAVANCE BIOPHARMA R&D IP, LLC, priority 2016, dated 2025).

Tests used:
[1] = Assay 4: Phase 1 multiple-ascending dose study, safety and tolerability; assay type: in vivo, human; details: healthy adult and elderly subjects, multiple oral doses up to 14 days
Protocol: A Phase 1 multiple-ascending dose (MAD) clinical trial of Compound I′ (Form I) was conducted in order to further evaluate the safety, tolerability, pharmacokinetics of Compound I and its metabolite, pharmacodynamics of Compound I, food effect, absolute oral bioavailability and renal elimination of multiple ascending oral doses of Compound I′ in healthy adult and elderly subjects. As discussed below, the reported data confirms the results stemming from the SAD clinical trial.
The Phase 1 study was a double-blind, randomized placebo-controlled multiple ascending dose study in healthy male and female volunteers randomized in a 4:1 ratio. The study enrolled 50 healthy adult (19-55 years old) and elderly (65-80 years old) volunteers over multiple weeks for the ascending-dose portion, which included cohorts (n=10/cohort of 8 active and 2 placebo) administered (1) ascending doses of 50 mg, 100 mg, and 200 mg, (2) a dose of 10 mg studied in parallel with 200 mg for PK/PK, and (3) a dose of 100 mg for one elderly cohort. […] Additionally, renal elimination of Compound I was neglible after multiple dosing, e.g., <1% was observed on Day 1 and Day 14 for all subjects.

[2] = Assay 1: IV/PO pharmacokinetic study in monkeys; assay type: in vivo, male cynomolgus monkeys; details: for bioavailability / AUC(0-t): cynomolgus monkey, plasma; for AUC(0-t): read-out: AUClast Mean; for CLlast Mean: monkey
Protocol: A monkey PK study was performed with an appropriate mass of Compound I in volume of vehicle (e.g., 5% sodium bicarbonate, 5% dextrose in H2O, pH 7.4, for oral and IV and filtered through a […] PDVF syringe for IV) such that the final concentration was dosed at 1.0 mg/mL for both IV and PO.
Intravenous doses of Compound I were administered through an indwelling catheter in the cephalic vein followed by a saline flush of approximately 3 mL. Intravenous doses were administered at a volume of 1 mL/kg. Oral doses were delivered into the stomach using a syringe and gavage tube followed by a water flush of approximately 10 mL. Oral doses were administered at a volume of 2 mL/kg. Blood samples were collected from each animal at each time point (pre-dose, 0.083 h, 0.25 h, 0.5 h, 1 h, 2 h, 4 h, 6 h, 8 h, 12 h, and 24 h) via the cephalic, femoral, or sphenous vein through […]. All samples were collected into K2EDTA tubes and placed on ice. Samples were processed to plasma by centrifugation (3200 rpm, 10 minutes, 5° C.), and acidified with a final concentration of 2% acetic acid. Aliquots of plasma were transferred to a 96-well plate tubes and stored frozen (−70° C.) prior to bioanalysis.
(§1) Plasma concentrations of Compound I were determined by LC/MS/MS. Plasma study samples were vortexed and placed in a 96-well plate. The samples were extracted with 200 μL of acetonitrile with an internal standard. The extract was centrifuged for 10 minutes at 2809 RPM and 50 μL supernatant was mixed with 200 μL 0.2% formic acid in water. Samples (10-15 μL) were injected on a ThermoFisher HyPURITY™ (C18 50×2.1 mm) column with a flow rate of 0.35 mL/min. Mobile phase A consisted of water: acetonitrile: formic acid (95:5:0.1, v:v:v) and Mobile phase B consisted of methanol: acetonitrile: formic acid (50:50:0.1, v:v:v) (dog). Mobile phase A consisted of 0.2% formic acid in water and mobile phase B consisted of 0.2% formic acid in acetonitrile (rat and monkey). Pharmacokinetic parameters of Compound I were determined by non-compartmental analysis (Model 201 and Model 200 for IV and PO administration, respectively) using Phoenix WinNonlin Version 6.3 (Certara, Sunnyvale, CA) and using individual plasma concentration time profiles from 3 animals per treatment group.
(§2) Plasma clearance was determined from the intravenous arm of the study, and represents the rate at which plasma is cleared of drug. It is equal to the dose divided by the area under the plasma concentration-time curve. In addition to plasma clearance, it is also essential for an orally administered drug to reach efficacious systemic levels following oral delivery. Oral bioavailability is a measurement of plasma exposures following oral administration relative to exposures following intravenous administration.

[3] = Assay 1: IV/PO pharmacokinetic study in rats; assay type: in vivo, male Sprague-Dawley rats; details: rat; for AUC(0-t) / bioavailability: plasma; for AUC(0-t): read-out: AUClast Mean; for bioavailability: po
Protocol: Each rat, dog or monkey PK study began with formulation of the test compound. Appropriate masses of each test compound were added into a volume of vehicle (e.g. 5% sodium bicarbonate, 5% dextrose in H2O) such that the final concentration of each compound was appropriate to be dosed. Although a homogenous suspension were acceptable for oral dosing, intravenous dosing solutions were sterile-filtered (0.2 μm) prior to dosing to ensure no particulates were administered.
In the rat study, pre-cannulated male Sprague-Dawley rats (3 per route) were obtained from Harlan Laboratories or Charles Rivers Laboratories. Rats received either a oral dose delivered into the stomach using a syringe and gavage tube or a intravenous (via lateral tail vein) dose of the dosing solution. The final dose was 0.5 mg/kg. Serial blood samples were harvested via the cannula implanted in the jugular vein at 3 min, 15 min, 30 min, 1 h, 2 h, 4 h, 6 h, and 24 h post-dose. Sampling was performed either manually or using automated blood samplers. Samples were collected into microtainer tubes containing EDTA as the anticoagulant and were processed to plasma by refrigerated centrifugation.
as §1, §2

[4] = target: human neprilysin (NEP) (Homo sapiens, UniProt P08473); test: in vitro human neprilysin inhibitor activity (pKi); assay type: biochemical
Sequence of human neprilysin (NEP) (P08473 whole entry): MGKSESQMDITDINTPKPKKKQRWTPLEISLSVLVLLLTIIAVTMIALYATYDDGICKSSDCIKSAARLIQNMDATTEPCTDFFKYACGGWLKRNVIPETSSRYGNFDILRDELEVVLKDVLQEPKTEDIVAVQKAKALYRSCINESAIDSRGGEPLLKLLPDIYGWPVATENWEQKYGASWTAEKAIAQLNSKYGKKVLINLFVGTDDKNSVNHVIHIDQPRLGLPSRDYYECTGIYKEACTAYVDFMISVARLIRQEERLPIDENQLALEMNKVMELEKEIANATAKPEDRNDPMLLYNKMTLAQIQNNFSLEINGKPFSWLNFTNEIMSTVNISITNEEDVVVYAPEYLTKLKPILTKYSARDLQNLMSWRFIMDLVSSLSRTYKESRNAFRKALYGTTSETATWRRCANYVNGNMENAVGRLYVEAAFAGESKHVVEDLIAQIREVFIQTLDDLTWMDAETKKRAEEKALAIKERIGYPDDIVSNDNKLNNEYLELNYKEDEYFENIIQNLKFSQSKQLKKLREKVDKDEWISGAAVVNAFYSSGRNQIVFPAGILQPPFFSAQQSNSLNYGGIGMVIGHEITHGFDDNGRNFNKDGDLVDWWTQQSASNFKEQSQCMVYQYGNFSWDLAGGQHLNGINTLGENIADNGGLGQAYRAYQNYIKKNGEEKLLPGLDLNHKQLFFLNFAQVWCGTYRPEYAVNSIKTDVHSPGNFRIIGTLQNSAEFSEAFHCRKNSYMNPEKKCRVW
Description: One measure of the ability of a compound to inhibit NEP activity is the inhibition constant (pKi). The pKi value is the negative logarithm to base 10 of the dissociation constant (Ki), which is typically reported in molar units. The compound of the invention has a pKi at NEP≥9.0.
The in vitro-to-in vivo extrapolation of drug behavior in a subject continues to improve (see, e.g., Chiba et al., AAPS J., 2009 June; 11 (2): 262-276). In the present invention, in vitro human neprilysin inhibitor activity was assessed in order to determine neprilysin inhibitory activity of Compound I and crystalline form I′. A threshold of pKi>9.0 was met. However, additional in vivo experiments were further performed in order to more accurately predict the behavior of Compound I and crystalline form I′ in a subject.

- bioavailability ([2]; po, higher doses (30 and 100 mg/kg), three different formulations, data not shown, read-out: mean bioavailability): 55 to 83%
- bioavailability ([2]; male, IV 1 mg/kg, PO 2 mg/kg, read-out: Oral Bioavailability Mean): 41.8%
- AUC(0-t) ([2]; male, IV, 1 mg/kg): 2290 ng·h/mL
- AUC(0-t) ([2]; male, PO, 2 mg/kg): 1910 ng·h/mL
- CLlast Mean ([2]; IV, 1 mg/kg): 6.33 mL/min/kg
- CLlast Mean ([2]; PO, 2 mg/kg): 21.8 mL/min/kg
- AUC(0-t) ([3]; male, Sprague-Dawley, IV, 0.5 mg/kg): 390 ng·h/mL
- AUC(0-t) ([3]; male, Sprague-Dawley, PO, 0.5 mg/kg): 130 ng·h/mL
- bioavailability ([3]; male, Sprague-Dawley, 0.5 mg/kg, read-out: Oral Bioavailability Mean): ~33%
- CLlast Mean ([3]; IV, 0.5 mg/kg): 20.3 mL/min/kg
- CLlast Mean ([3]; PO, 0.5 mg/kg): 50.2 mL/min/kg
- bioavailability ([3]; higher doses (30-1000 mg/kg), data not shown, read-out: mean bioavailability): 49 to 79%
- Ki [4]: < 1 nM
Compound: CCOC[C@](C)(C[C@@H](Cc1ccc(-c2cc(Cl)ccc2F)cc1)NC(=O)c1cc(O)no1)C(=O)O [Compound I, (2S,4R)-5-(5′-Chloro-2′-fluoro-[1,1′-biphenyl]-4-yl)-2-(ethoxymethyl)-4-(3-hydroxyisoxazole-5-carboxamido)-2-methylpentanoic Acid]
- tolerability [1]: generally well-tolerated
